Experimental data published in PubChem BioAssay AID1963441 (Molecular Pharmacology Branch, DTP, NCI, 2024).

Test system: NCI-H1876 complex spheroid growth, % test/control
Assay: Anticancer human tumor NCI-H1876 cell line growth inhibition [Asc];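 further: compound exposure lasted 7 days starting three days after seeding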;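 on viability, T/C: 100% = DMSO vehicle control wells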
Details: for IC50: curve of first compound; for viability, T/C: stronger effect = lower value
Summary of the method: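 Concentration series start at each agent's clinical Cmax, or at 10 microM when none is established, and drop in half-log steps; agents are applied alone or together to complex spheroids built with HUVEC and hMSC.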

[1] = second compound 0.00949 µM, first compound 0.0316 µM
[2] = second compound 0.00949 µM, first compound 0.1 µM
[3] = second compound 0.00949 µM, first compound 0.316 µM
[4] = second compound 0.00949 µM, first compound 1 µM
[5] = second compound 0.00949 µM, first compound 3.16 µM
[6] = second compound 0.00949 µM, first compound 10 µM
[7] = second compound 0.03 µM, first compound 0.0316 µM
[8] = second compound 0.03 µM, first compound 0.1 µM
[9] = second compound 0.03 µM, first compound 0.316 µM
[10] = second compound 0.03 µM, first compound 1 µM
[11] = second compound 0.03 µM, first compound 3.16 µM
[12] = second compound 0.03 µM, first compound 10 µM
[13] = second compound 0.0949 µM, first compound 0.0316 µM
[14] = second compound 0.0949 µM, first compound 0.1 µM
[15] = second compound 0.0949 µM, first compound 0.316 µM
[16] = second compound 0.0949 µM, first compound 1 µM
[17] = second compound 0.0949 µM, first compound 3.16 µM
[18] = second compound 0.0949 µM, first compound 10 µM
[19] = second compound 0.3 µM, first compound 0.0316 µM
[20] = second compound 0.3 µM, first compound 0.1 µM
[21] = second compound 0.3 µM, first compound 0.316 µM
[22] = second compound 0.3 µM, first compound 1 µM
[23] = second compound 0.3 µM, first compound 3.16 µM
[24] = second compound 0.3 µM, first compound 10 µM
[25] = second compound 0.949 µM, first compound 0.0316 µM
[26] = second compound 0.949 µM, first compound 0.1 µM
[27] = second compound 0.949 µM, first compound 0.316 µM
[28] = second compound 0.949 µM, first compound 1 µM
[29] = second compound 0.949 µM, first compound 3.16 µM
[30] = second compound 0.949 µM, first compound 10 µM
[31] = second compound 3 µM, first compound 0.0316 µM
[32] = second compound 3 µM, first compound 0.1 µM
[33] = second compound 3 µM, first compound 0.316 µM
[34] = second compound 3 µM, first compound 1 µM
[35] = second compound 3 µM, first compound 3.16 µM
[36] = second compound 3 µM, first compound 10 µM

## C#Cc1c(F)ccc2cc(O)cc(-c3ncc4c(N5CC6CCC(C5)N6)nc(OCC56CCCN5CC(F)C6)nc4c3F)c12 (stereo not drawn) + CCN1C(C(=O)NC23CCC(C(=O)O)(CC2)CC3)C(c2cccc(Cl)c2F)C2(C(=O)Nc3cc(Cl)ccc32)C12CCCCC2
Second compound 0.00949 µM
  IC50: > 10 µM
Second compound 0.03 µM
  IC50: > 10 µM
Second compound 0.0949 µM
  IC50: > 10 µM
Second compound 0.3 µM
  IC50: > 10 µM
Second compound 0.949 µM
  IC50: > 10 µM
Second compound 3 µM
  IC50: > 10 µM
[1]
  viability, T/C: 89.2%
[2]
  viability, T/C: 97.2%
[3]
  viability, T/C: 98.5%
[4]
  viability, T/C: 95.6%
[5]
  viability, T/C: 98.1%
[6]
  viability, T/C: 87.1%
[7]
  viability, T/C: 94.8%
[8]
  viability, T/C: 106%
[9]
  viability, T/C: 98.5%
[10]
  viability, T/C: 103%
[11]
  viability, T/C: 95.3%
[12]
  viability, T/C: 89.8%
[13]
  viability, T/C: 101%
[14]
  viability, T/C: 112%
[15]
  viability, T/C: 102%
[16]
  viability, T/C: 97.7%
[17]
  viability, T/C: 96.3%
[18]
  viability, T/C: 88.4%
[19]
  viability, T/C: 105%
[20]
  viability, T/C: 106%
[21]
  viability, T/C: 114%
[22]
  viability, T/C: 99.8%
[23]
  viability, T/C: 96.5%
[24]
  viability, T/C: 99.5%
[25]
  viability, T/C: 118%
[26]
  viability, T/C: 120%
[27]
  viability, T/C: 104%
[28]
  viability, T/C: 112%
[29]
  viability, T/C: 116%
[30]
  viability, T/C: 95%
[31]
  viability, T/C: 97.4%
[32]
  viability, T/C: 88%
[33]
  viability, T/C: 85.2%
[34]
  viability, T/C: 96.9%
[35]
  viability, T/C: 102%
[36]
  viability, T/C: 79.2%

## C=C(F)C(=O)N1CCN(c2nc(OCC3CCCN3C)nc3c2CCN(c2cccc4cccc(Cl)c24)C3)CC1CC#N (stereo not drawn) + CCN1C(C(=O)NC23CCC(C(=O)O)(CC2)CC3)C(c2cccc(Cl)c2F)C2(C(=O)Nc3cc(Cl)ccc32)C12CCCCC2
Second compound 0.00949 µM
  IC50: 6.65 µM
Second compound 0.03 µM
  IC50: 6.95 µM
Second compound 0.0949 µM
  IC50: 6.91 µM
Second compound 0.3 µM
  IC50: 6.79 µM
Second compound 0.949 µM
  IC50: 6.4 µM
Second compound 3 µM
  IC50: 5.67 µM
[1]
  viability, T/C: 93.6%
[2]
  viability, T/C: 102%
[3]
  viability, T/C: 102%
[4]
  viability, T/C: 107%
[5]
  viability, T/C: 107%
[6]
  viability, T/C: 21.5%
[7]
  viability, T/C: 104%
[8]
  viability, T/C: 108%
[9]
  viability, T/C: 109%
[10]
  viability, T/C: 110%
[11]
  viability, T/C: 106%
[12]
  viability, T/C: 24%
[13]
  viability, T/C: 107%
[14]
  viability, T/C: 99.3%
[15]
  viability, T/C: 101%
[16]
  viability, T/C: 98.5%
[17]
  viability, T/C: 101%
[18]
  viability, T/C: 26%
[19]
  viability, T/C: 104%
[20]
  viability, T/C: 92.1%
[21]
  viability, T/C: 99.3%
[22]
  viability, T/C: 110%
[23]
  viability, T/C: 111%
[24]
  viability, T/C: 22.9%
[25]
  viability, T/C: 111%
[26]
  viability, T/C: 107%
[27]
  viability, T/C: 108%
[28]
  viability, T/C: 116%
[29]
  viability, T/C: 109%
[30]
  viability, T/C: 12.7%
[31]
  viability, T/C: 109%
[32]
  viability, T/C: 109%
[33]
  viability, T/C: 110%
[34]
  viability, T/C: 112%
[35]
  viability, T/C: 93.8%
[36]
  viability, T/C: 7.68%

## C=CC(=O)N1CCN(c2nc(=O)n(-c3c(C)ccnc3C(C)C)c3nc(-c4c(O)cccc4F)c(F)cc23)C(C)C1 (stereo not drawn) + CCN1C(C(=O)NC23CCC(C(=O)O)(CC2)CC3)C(c2cccc(Cl)c2F)C2(C(=O)Nc3cc(Cl)ccc32)C12CCCCC2
Second compound 0.00949 µM
  IC50: > 10 µM
Second compound 0.03 µM
  IC50: > 10 µM
Second compound 0.0949 µM
  IC50: > 10 µM
Second compound 0.3 µM
  IC50: > 10 µM
Second compound 0.949 µM
  IC50: > 10 µM
Second compound 3 µM
  IC50: > 10 µM
[1]
  viability, T/C: 93.5%
[2]
  viability, T/C: 90.4%
[3]
  viability, T/C: 101%
[4]
  viability, T/C: 108%
[5]
  viability, T/C: 118%
[6]
  viability, T/C: 106%
[7]
  viability, T/C: 98.2%
[8]
  viability, T/C: 101%
[9]
  viability, T/C: 104%
[10]
  viability, T/C: 103%
[11]
  viability, T/C: 110%
[12]
  viability, T/C: 107%
[13]
  viability, T/C: 96.8%
[14]
  viability, T/C: 93.4%
[15]
  viability, T/C: 107%
[16]
  viability, T/C: 106%
[17]
  viability, T/C: 117%
[18]
  viability, T/C: 107%
[19]
  viability, T/C: 103%
[20]
  viability, T/C: 106%
[21]
  viability, T/C: 115%
[22]
  viability, T/C: 114%
[23]
  viability, T/C: 114%
[24]
  viability, T/C: 109%
[25]
  viability, T/C: 118%
[26]
  viability, T/C: 115%
[27]
  viability, T/C: 104%
[28]
  viability, T/C: 114%
[29]
  viability, T/C: 118%
[30]
  viability, T/C: 112%
[31]
  viability, T/C: 112%
[32]
  viability, T/C: 99.6%
[33]
  viability, T/C: 96.7%
[34]
  viability, T/C: 109%
[35]
  viability, T/C: 114%
[36]
  viability, T/C: 107%

## CNC(C)C(=O)NC1CN(S(=O)(=O)c2cccc(S(=O)(=O)N3CCC4CCC(C(=O)NC(c5ccccc5)c5ccccc5)N4C(=O)C(NC(=O)C(C)NC)C3)c2)CCC2CCC(C(=O)NC(c3ccccc3)c3ccccc3)N2C1=O (stereo not drawn) + CCN1C(C(=O)NC23CCC(C(=O)O)(CC2)CC3)C(c2cccc(Cl)c2F)C2(C(=O)Nc3cc(Cl)ccc32)C12CCCCC2
Second compound 0.00949 µM
  IC50: > 1 µM
Second compound 0.03 µM
  IC50: > 1 µM
Second compound 0.0949 µM
  IC50: > 1 µM
Second compound 0.3 µM
  IC50: > 1 µM
Second compound 0.949 µM
  IC50: > 1 µM
Second compound 3 µM
  IC50: > 1 µM
Second compound 0.00949 µM, first compound 0.00316 µM
  viability, T/C: 101%
Second compound 0.00949 µM, first compound 0.01 µM
  viability, T/C: 99.6%
[1]
  viability, T/C: 101%
[2]
  viability, T/C: 100%
[3]
  viability, T/C: 116%
[4]
  viability, T/C: 102%
Second compound 0.03 µM, first compound 0.00316 µM
  viability, T/C: 103%
Second compound 0.03 µM, first compound 0.01 µM
  viability, T/C: 96.7%
[7]
  viability, T/C: 98.8%
[8]
  viability, T/C: 98.4%
[9]
  viability, T/C: 115%
[10]
  viability, T/C: 97%
Second compound 0.0949 µM, first compound 0.00316 µM
  viability, T/C: 111%
Second compound 0.0949 µM, first compound 0.01 µM
  viability, T/C: 104%
[13]
  viability, T/C: 106%
[14]
  viability, T/C: 106%
[15]
  viability, T/C: 98.5%
[16]
  viability, T/C: 110%
Second compound 0.3 µM, first compound 0.00316 µM
  viability, T/C: 103%
Second compound 0.3 µM, first compound 0.01 µM
  viability, T/C: 108%
[19]
  viability, T/C: 108%
[20]
  viability, T/C: 108%
[21]
  viability, T/C: 118%
[22]
  viability, T/C: 103%
Second compound 0.949 µM, first compound 0.00316 µM
  viability, T/C: 114%
Second compound 0.949 µM, first compound 0.01 µM
  viability, T/C: 119%
[25]
  viability, T/C: 106%
[26]
  viability, T/C: 119%
[27]
  viability, T/C: 115%
[28]
  viability, T/C: 112%
Second compound 3 µM, first compound 0.00316 µM
  viability, T/C: 114%
Second compound 3 µM, first compound 0.01 µM
  viability, T/C: 108%
[31]
  viability, T/C: 107%
[32]
  viability, T/C: 99.5%
[33]
  viability, T/C: 110%
[34]
  viability, T/C: 109%
